Like-named read-outs stand apart in the source and are kept apart here.
Tests used:
Assay type in all cases: in vivo
[1] = test system: velvetleaf (Abutilon theophrasti, ABUTH); assay: Greenhouse test of herbicidal effectiveness (visual percent control) on velvetleaf
Text: (§1) The following procedure was used for testing compositions of the Examples to determine herbicidal effectiveness, except where otherwise indicated.
(§2) Seeds of the plant species indicated were planted in 85 mm square pots in a soil mix which was previously steam sterilized and prefertilized with a 14-14-14 NPK slow release fertilizer at a rate of 3.6 kg/m3. The pots were placed in a greenhouse with sub-irrigation. About one week after emergence, seedlings were thinned as needed, including removal of any unhealthy or abnormal plants, to create a uniform series of test pots.
The plants were maintained for the duration of the test in the greenhouse where they received a minimum of 14 hours of light per day. […] Exposure temperatures were not precisely controlled but averaged about 27° C. during the day and about 18° C. during the night. Plants were sub-irrigated throughout the test to ensure adequate soil moisture levels.
(§3) Pots were assigned to different treatments in a randomized experimental design with 6 replications. A set of pots was left untreated as a reference against which effects of the treatments could later be evaluated.
(§4) Application of glyphosate compositions was made by spraying with a track sprayer fitted with a 9501E nozzle calibrated to deliver a spray volume of 93 liters per hectare (l/ha) at a pressure of 166 kilopascals (kPa). After treatment, pots were returned to the greenhouse until ready for evaluation.
Treatments were made using dilute aqueous compositions. These could be prepared as spray compositions directly from their ingredients, or by dilution with water of preformulated concentrate compositions.
For evaluation of herbicidal effectiveness, all plants in the test were examined by a single practiced technician, who recorded percent control, a visual measurement of the effectiveness of each treatment by comparison with untreated plants. […] The reported % control values represent the average for all replicates of each treatment.

[2] = test system: Japanese millet (Echinochloa crus-galli var. frumentae, ECHCF); assay: Herbicidal effectiveness (percent control) on Japanese millet; conditions: comparison as worded in the text of the example
Text: as §1
as §2, with “pots. […]” for “pots.”
as §3
as §4, with “evaluation. […]” for “evaluation.”
(§5) For evaluation of herbicidal effectiveness, all plants in the test were examined by a single practiced technician, who recorded percent control, a visual measurement of the effectiveness of each treatment by comparison with untreated plants. […]

[3] = test system: Yellow nutsedge (Cyperus esculentus, CYPES); assay: Herbicidal effectiveness (percent control) on yellow nutsedge; conditions: 0.03% oxalic acid in potassium glyphosate tank mixes
hemp sesbania (SEBEX) = assay: Herbicidal effectiveness (percent control) on hemp sesbania; conditions: comparison as worded in the text of the example
Text: as §1
as §2, with “pots. […]” for “pots.”
as §3
as §4, with “evaluation. […]” for “evaluation.”
as §5

morningglory (IPOSS) = assay: Herbicidal effectiveness (percent control) on morningglory; conditions: comparison as worded in the text of the example
Text: as §1
as §2, with “pots. […]” for “pots.”
as §3
as §4, with “evaluation. […]” for “evaluation.”
as §5

sicklepod (CASOB) = assay: Herbicidal effectiveness (percent control) on sicklepod; conditions: comparison as worded in the text of the example
Indian Mustard (BRSJU) = assay: Herbicidal effectiveness (percent control) on Indian mustard; conditions: comparison as worded in the text of the example
Text: as §1
as §2, with “pots. […]” for “pots.”
as §3
as §4, with “evaluation. […]” for “evaluation.”
as §5

velvetleaf (ABUTH) = assay: Rainfastness of Roundup UltraMax with oxalic acid on velvetleaf; conditions: glyphosate a.e.:oxalic acid 15:1; 0.25 inches of rain one or two hours after treatment, or no rain
Protocol: The rainfastedness of a Roundup UltraMax and oxalic acid, at a weight ratio of glyphosate a.e. to oxalic acid of 15:1, was evaluated. The Roundup UltraMax formulations were applied at rates of 300 and 500 g a.e./ha and evaluated with no rain, 0.25 inches of rain at one hour after treatment, and 0.25 inches of rain at two hours after treatment.

Prickly sida (SIDSP) = assay: Herbicidal effectiveness (percent control) on prickly sida; conditions: comparison as worded in the text of the example
Text: as §1
as §2, with “pots. […]” for “pots.”
as §3
as §4, with “evaluation. […]” for “evaluation.”
as §5

[4] = comparison as worded in the text of the example

CC(=O)O [Acetic acid]
herbicidal efficacy on velvetleaf (ABUTH), result in words [1, 4]: did not significantly effect the efficacy

C[N+](C)(C)Cc1ccccc1.[Cl-] [Benzyltrimethylammonium chloride]
herbicidal efficacy on velvetleaf (ABUTH), result in words [1, 4]: better efficacy than did the commercial Roundup UltraMax standard

C[N+](C)(C)Cc1ccccc1.[OH-] [Benzyltrimethylammonium hydroxide]
herbicidal efficacy on velvetleaf (ABUTH), result in words [1, 4]: better efficacy than did the commercial Roundup UltraMax standard

O=C(O)CC(O)(CC(=O)O)C(=O)O [Citric acid]
herbicidal efficacy on velvetleaf (ABUTH), result in words [1, 4]: did not significantly effect the efficacy
herbicidal efficacy on velvetleaf (ABUTH), result in words ([1]; comparison as worded in the text of the example, listed as citric acid): did not have significant impact on the efficacy

O=C([O-])C(=O)[O-].[K+].[K+] [Dipotassium oxalate, dipotassium oxalate]
herbicidal efficacy on velvetleaf (ABUTH), result in words [1, 4]: enhanced efficacy regardless of the glyphosate salt
herbicidal efficacy on ECHCF (barnyardgrass), result in words [2]: relatively ineffective for enhancing efficacy against barnyardgrass

O=C(O)[C@H](O)[C@@H](O)[C@H](O)[C@H](O)CO [Gluconic acid]
herbicidal efficacy on velvetleaf (ABUTH), result in words [1, 4]: did not significantly effect the efficacy

CC(O)C(=O)O (centres unmarked) [Lactic acid]
herbicidal efficacy on velvetleaf (ABUTH), result in words [1, 4]: did not significantly effect the efficacy

O=C(O)C(=O)O [Oxalic acid]
herbicidal efficacy on yellow nutsedge (CYPES), result in words [3]: did not provide synergy on yellow nutsedge
herbicidal efficacy on hemp sesbania (SEBEX), result in words (hemp sesbania (SEBEX)): equal with the standards regardless of the presence of oxalic acid
herbicidal efficacy on velvetleaf (ABUTH), result in words [1]: further increased efficacy
herbicidal efficacy on morningglory (IPOSS), result in words (morningglory (IPOSS)): equally effective in enhancing Roundup UltraMax efficacy on morningglory
herbicidal efficacy on sicklepod (CASOB), result in words (sicklepod (CASOB)): did not give statistically significant efficacy enhancement on sicklepod
herbicidal efficacy on Indian mustard (BRSJU), result in words (Indian Mustard (BRSJU)): did not provide significant efficacy enhancement on Indian mustard
herbicidal efficacy on ECHCF (barnyardgrass), result in words [2]: did not significantly enhance glyphosate efficacy on barnyardgrass
rainfastness on velvetleaf, result in words (velvetleaf (ABUTH)): did not provide any rainfastness properties for Roundup UltraMax on velvetleaf
herbicidal efficacy on prickly sida (SIDSP), result in words (Prickly sida (SIDSP)): gave efficacy enhancement

O=P(O)(O)O [Phosphoric acid]
herbicidal efficacy on velvetleaf (ABUTH), result in words [1, 4]: did not significantly effect the efficacy
herbicidal efficacy on velvetleaf (ABUTH), result in words ([1]; comparison as worded in the text of the example, listed as phosphoric acid): did not have significant impact on the efficacy

NC(=O)CCC(=O)O [Succinamic acid]
herbicidal efficacy on velvetleaf (ABUTH), result in words [1, 4]: antagonistic effect on glyphosate efficacy

O=C(O)CCC(=O)O [Succinic acid]
herbicidal efficacy on velvetleaf (ABUTH), result in words [1, 4]: did not significantly effect the efficacy

O=C(O)CCCCC(=O)O [adipic acid, Adipic acid]
herbicidal efficacy on velvetleaf (ABUTH), result in words [1, 4]: some increased efficacy

— patent US7723265B2, “Pesticide compositions containing oxalic acid” (Monsanto Technology, priority 2000, dated 2010)
